Entries after “also recorded” stand apart in the source; their conditions may differ.
Legend:
[1] = tested on: KP-L-RY leukemia cell line; assay: MTT viability assay; format: cell-based; conditions: 72 h, differing concentrations
Description: All cell lines were maintained in RPMI 1640+10% FCS. 100 μl aliquots of cell suspension (5×10^5 cells/ml) were cultured in flat-bottomed 96 well plates in the presence of different concentrations of peptides. After 72 h incubation at 37° C. in humidified air containing 5% CO2, viable cell number was determined by MTT assay as follows: 10 μl of 3-[4,5-dimethylthiazol-2-yl]-2,5-diphenyl tetrazolium bromide (MTT) (5 mg/ml concentration) (Sigma) was added to each well and incubated further for 6 h. Formazan crystals that are formed during incubation were dissolved in 100 μl of acidified isopropanol. The optical density at 550 nm (which is linearly related to the number of viable cells) was measured using a plate spectrophotometer. Growth characteristics of the leukemia cell lines were also determined for cells by Trypan Blue exclusion.

[2] = biological target: T1, AF4-AF9 protein complexes (Homo sapiens, UniProt P42568); assay: Co-localization of GFP-AF4R1 3A- and RFP-AF9 in transfected NIH-3T3 cells; format: cell-based, mouse; conditions: overnight
T1 construct: expressed in transfected cells; host or cells: NIH-3T3
T1 sequence (P42568 1-568): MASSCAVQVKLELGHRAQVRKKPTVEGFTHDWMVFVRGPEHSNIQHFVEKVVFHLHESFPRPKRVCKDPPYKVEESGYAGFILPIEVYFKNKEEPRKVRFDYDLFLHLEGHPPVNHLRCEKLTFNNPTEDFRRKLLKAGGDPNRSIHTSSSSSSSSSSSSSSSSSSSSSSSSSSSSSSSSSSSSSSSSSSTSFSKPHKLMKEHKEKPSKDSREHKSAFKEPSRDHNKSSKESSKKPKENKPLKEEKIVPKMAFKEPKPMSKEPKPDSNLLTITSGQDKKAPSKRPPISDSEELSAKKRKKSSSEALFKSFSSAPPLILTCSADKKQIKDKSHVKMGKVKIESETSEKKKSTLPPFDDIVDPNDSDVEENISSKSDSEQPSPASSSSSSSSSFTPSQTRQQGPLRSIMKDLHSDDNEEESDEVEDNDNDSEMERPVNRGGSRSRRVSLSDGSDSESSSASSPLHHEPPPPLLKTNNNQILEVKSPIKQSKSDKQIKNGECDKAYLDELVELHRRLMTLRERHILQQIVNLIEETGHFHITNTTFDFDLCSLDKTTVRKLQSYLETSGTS
Description: To determine whether PFWT disrupts AF4-AF9 protein complexes in living cells, the properties of a fragment of mouse AF4 protein encompassing amino acids 623–811 (SEQ ID NO: 115) was used. The entire murine AF4 sequence can be obtained from the NCBI database at Accession Number AAD08668.
To test whether disruption of the AF4-AF9 interaction by PFWT results in delocalization of AF4R1 3A- from the nucleus to the cytoplasm even when co-expressed with exogenous AF9, the following assay was performed.
An enhanced green fluorescent protein (GFP) expression vector encoding mouse AF4 amino acids 623–811 SEQ ID NO: 115 (pEGFP-AF4R1 3A-), and a red fluorescent protein (RFP)-tagged AF9 expression vector were produced as described (Erfurth, F., et al., 2004, cited above; Srinivasan 2003, cited above; Hemenway, C. S., et al., 2001, cited above). NIH-3T3 cells were grown in chamber slides containing DMEM supplemented with 1-glutamine, 1% non-essential amino acids, 1% sodium pyruvate, 10% calf serum, and antibiotics. Cells were then transiently transfected with the expression vectors expressing fluorescent protein-tagged AF4 and AF9 using Lipofectamine™ 2000 reagent (Invitrogen). After 24 h the cells were treated with the peptides PFWT or PFmut at a concentration of 25 or 50 μg/ml and incubated overnight.
Cells on chamber slides were washed in PBS, fixed with 3% paraformaldehyde for 15 minutes, treated with 300 nM 4′,6-Diamidino-2-phenyindole (DAPI) nuclear counterstain for 5 minutes, and mounted with coverslips using Prolong™ media (Molecular Probes). Slides were visualized by deconvolution fluorescence microscopy with a Leica DMRXA upright microscope (Meyer Instruments) equipped with a Sensicam™ QE CCD digital camera (Cooke Corporation) and filter sets for both EGFP (exciter HQ480/20, dichroic Q495LP, and emitter HQ510/20m) and RFP (exciter 560/55x, dichroic Q595LP, and emitter HQ645/75m). Images were captured, deconvolved, and analyzed with Slidebook™ software (Intelligent Imaging Innovations).
Image analysis entailed a pixel correlation algorithm between the EGFP and RFP fluorescence channels within each image through creation of a digital binary overlay (thresholding) over arbitrary regions in both channels. This statistical measurement determines the degree in which two pixels in an image correspond to one another. If the trend in number of pixels in both EGFP and RFP channels overlap or co-localize entirely (i.e., perfect pixel set correlation), they have an assigned correlation measurement of 1.0.

| Structure (SMILES) | cell viability [1] | localization of GFP-AF4R1 3A- relative to RFP-AF9 ([2]; 25 μg/ml) | pixel correlation between EGFP and RFP channels ([2]; 25 μg/ml) | localization of GFP-AF4R1 3A- relative to RFP-AF9 ([2]; 50 μg/ml) | pixel correlation between EGFP and RFP channels ([2]; 50 μg/ml) |
| --- | --- | --- | --- | --- | --- |
| CC[C@H](C)[C@H](NC(=O)[C@H](CCCCN)NC(=O)[C@@H](NC(=O)[C@H](Cc1c[nH]c2ccccc12)NC(=O)[C@H](CC(C)C)NC(=O)[C@H](CCCCN)NC(=O)[C@H](CCCCN)NC(=O)[C@H](Cc1c[nH]c2ccccc12)NC(=O)[C@H](CCCCN)NC(=O)[C@H](CCSC)NC(=O)[C@H](CCCNC(=N)N)NC(=O)[C@H](CCCNC(=N)N)NC(=O)[C@H](CC(N)=O)NC(=O)[C@H](CCC(N)=O)NC(=O)[C@H](Cc1ccccc1)NC(=O)[C@H](Cc1c[nH]c2ccccc12)NC(=O)[C@H](CCCCN)NC(=O)[C@@H](NC(=O)[C@H](CCC(N)=O)NC(=O)[C@@H](N)CCCNC(=N)N)[C@@H](C)CC)C(C)C)C(=O)N[C@@H](CC(=O)O)C(=O)N[C@@H](CC(C)C)C(=O)N[C@@H](CC(=O)O)C(=O)N[C@@H](CC(C)C)C(=O)N[C@@H](CC(C)C)C(=O)N[C@@H](CO)C(=O)N[C@@H](CCCNC(=N)N)C(=O)N[C@H](C(=O)N1CCC[C@H]1C(=O)O)C(C)C [PFWT] | diminished; also recorded: inhibits | partially delocalizes or is displaced from RFP-AF9 | negative correlation value | little or no GFP-AF4R1 3A- remains in the nucleus | negatively correlated |
| CC[C@H](C)[C@H](NC(=O)[C@H](CCC(N)=O)NC(=O)[C@@H](N)CCCNC(=N)N)C(=O)N[C@@H](CCCCN)C(=O)N[C@@H](Cc1c[nH]c2ccccc12)C(=O)N[C@@H](Cc1ccccc1)C(=O)N[C@@H](CCC(N)=O)C(=O)N[C@@H](CC(N)=O)C(=O)N[C@@H](CCCNC(=N)N)C(=O)N[C@@H](CCCNC(=N)N)C(=O)N[C@@H](CCSC)C(=O)N[C@@H](CCCCN)C(=O)N[C@@H](Cc1c[nH]c2ccccc12)C(=O)N[C@@H](CCCCN)C(=O)N[C@@H](CCCCN)C(=O)N[C@@H](CC(C)C)C(=O)N[C@@H](Cc1c[nH]c2ccccc12)C(=O)N[C@@H](CCC(=O)O)C(=O)N[C@@H](CCCCN)C(=O)N[C@@H](CO)C(=O)N[C@@H](CC(=O)O)C(=O)N[C@@H](CC(C)C)C(=O)N[C@@H](CC(=O)O)C(=O)N[C@@H](CC(C)C)C(=O)N[C@@H](CC(C)C)C(=O)N[C@@H](CO)C(=O)N[C@@H](CCCNC(=N)N)C(=O)N[C@H](C(=O)N1CCC[C@H]1C(=O)O)C(C)C [PFmut] | much less sensitive | no observable effect | significantly positively correlated | displaces some GFP-AF4R1 3A- from RFP-AF9 into the cytoplasm | strongly positively correlated |

Source: US7189691B2, “Methods and compositions for treating leukemia” (The Administrators of the Tulane Educational Fund, priority 2004, dated 2007)
